Assay results reported in EP0339681B1, “Antitumor antibiotic substance” (MEIJI SEIKA KAISHA LTD., priority 1988, dated 1989).
In brackets after ≈: the same amount, converted by molar mass.

Legend:
infection = settings: mouse, in vivo; cited from earlier work
P-388 tumor cells = assay: Therapeutic test on mice with intraperitoneally transplanted P-388 tumor cells; type: in vivo, mouse; settings: intraperitoneally once a day for two days
Method: To evaluate antitumor activity of the test compounds, the following therapeutic test was conducted.
P-388 tumor cells were transplanted into the abdominal cavity of a mouse. A test compound was intraperitoneally administered to the animal once a day for two days. The effect thus observed is expressed in ILS (%). [formula]

[1] = tested on: P-388 mouse leukemia cells; assay: Cytotoxic effect: 50% growth inhibition of P-388 cells; settings: P388, 72 h, read-out: IC₅₀

Row | SMILES | therapeutic effect on infection (infection) | IC50 [1] [µg/mL] | also measured
1 | COC(=O)C1(C)Nc2c(O)cc3c(c2C1=O)C(CO)CN3C(=O)c1cc2cc(OC)c(OC)c(OC)c2[nH]1 (stereo not drawn) | therapeutic effect on infection | – | –
2 | COC(=O)C1(C)Nc2c(OS(C)(=O)=O)cc3c(c2C1=O)C(COS(C)(=O)=O)CN3C(=O)c1cc2cc(OC)c(OC)c(OC)c2[nH]1 (stereo not drawn) [Compound 1] | – | 0.06 (≈ 0.088 µM) | ILS (%) (P-388 tumor cells; Dose 2.4 mg/kg): 40%; ILS (%) (P-388 tumor cells; Dose 7 mg/kg): 40%; ILS (%) (P-388 tumor cells; Dose 21 mg/kg): 54%
3 | COC(=O)C1(C)Nc2c(OS(C)(=O)=O)cc3c(c2C1=O)C(CO)CN3C(=O)c1cc2cc(OC)c(OC)c(OC)c2[nH]1 (stereo not drawn) [Compound 2] | – | 0.004 (≈ 0.00663 µM) | ILS (%) (P-388 tumor cells; Dose 0.25 mg/kg): 15%; ILS (%) (P-388 tumor cells; Dose 0.5 mg/kg): 40%; ILS (%) (P-388 tumor cells; Dose 1 mg/kg): 40%
4 | COC(=O)C1(C)Nc2c(OS(=O)(=O)c3ccc(C)cc3)cc3c(c2C1=O)C(CO)CN3C(=O)c1cc2cc(OC)c(OC)c(OC)c2[nH]1 (stereo not drawn) [Compound 3] | – | 2.5 (≈ 3.68 µM) | –
5 | COC(=O)C1(C)Nc2c(O)cc3c(c2C1=O)C(CCl)CN3C(=O)c1cc2cc(OC)c(OC)c(OC)c2[nH]1 (stereo not drawn) [SF2582A] | therapeutic effect on infection | – | –
6 | COC(=O)C1(C)Nc2c(O)cc3c(c2C1=O)CC(Cl)CN3C(=O)c1cc2cc(OC)c(OC)c(OC)c2[nH]1 (stereo not drawn) [SF2582B] | therapeutic effect on infection | – | –
